Experimental data as given in ChEMBL document CHEMBL1909046, “DrugMatrix in vitro pharmacology data”.

What was measured:
[1] = molecular target: T1, Cysteinyl leukotriene receptor 1 (Homo sapiens, UniProt Q9Y271); assay type: cell membranes, CHO-K1, Membrane; details: cho-k1; note: in other assays of this panel Not Active means under 50% inhibition at 10 µM
T1 sequence (Q9Y271 whole entry): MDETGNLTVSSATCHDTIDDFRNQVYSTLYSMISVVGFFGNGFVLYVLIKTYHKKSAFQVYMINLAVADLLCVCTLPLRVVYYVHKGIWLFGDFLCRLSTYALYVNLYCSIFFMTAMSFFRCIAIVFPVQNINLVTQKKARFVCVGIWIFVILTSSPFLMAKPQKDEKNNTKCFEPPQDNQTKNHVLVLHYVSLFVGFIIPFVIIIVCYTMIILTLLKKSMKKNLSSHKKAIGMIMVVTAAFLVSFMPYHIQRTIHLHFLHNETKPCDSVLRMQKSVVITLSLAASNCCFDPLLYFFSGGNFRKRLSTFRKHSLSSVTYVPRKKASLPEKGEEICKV

[2] = DRUGMATRIX: Potassium Channel [KATP] radioligand binding (ligand: [3H] Glyburide); assay type: cell membranes, Membrane; details: hit-t15; Not Active = under 50% inhibition at 10 µM
Cytochrome P450 3A4 = Cytochrome P450 3A4 (Homo sapiens, UniProt P08684); details: bti-tn-5b1-4; note: in other assays of this panel Not Active means under 50% inhibition at 10 µM
[3] = molecular target: T2, Cholecystokinin receptor type A (Homo sapiens, UniProt P32238); assay type: cell membranes, Membrane; details: 1321-n1; note: in other assays of this panel Not Active means under 50% inhibition at 10 µM
T2 sequence (P32238 whole entry): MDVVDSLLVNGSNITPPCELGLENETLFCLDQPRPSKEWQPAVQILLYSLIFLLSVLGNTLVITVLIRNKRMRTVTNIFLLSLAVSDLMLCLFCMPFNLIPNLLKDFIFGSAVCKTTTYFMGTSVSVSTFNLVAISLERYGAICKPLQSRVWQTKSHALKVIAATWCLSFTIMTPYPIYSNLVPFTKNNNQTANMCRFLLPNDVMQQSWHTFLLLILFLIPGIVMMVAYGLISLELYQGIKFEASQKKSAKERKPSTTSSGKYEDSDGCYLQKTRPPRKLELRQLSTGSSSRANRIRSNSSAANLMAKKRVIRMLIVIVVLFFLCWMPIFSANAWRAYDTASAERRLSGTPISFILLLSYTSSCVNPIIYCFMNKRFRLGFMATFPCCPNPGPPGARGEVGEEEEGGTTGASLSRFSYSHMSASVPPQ

Vasopressin V1a receptor = Vasopressin V1a receptor (Homo sapiens, UniProt P37288); assay type: cell membranes, Membrane; details: hek293; note: in other assays of this panel Not Active means under 50% inhibition at 10 µM
[4] = molecular target: Matrix metalloproteinase-9 (Homo sapiens, UniProt P14780); assay type: cell-based
[5] = molecular target: Kappa-type opioid receptor (Homo sapiens, UniProt P41145); assay: DRUGMATRIX: Opiate kappa (OP2, KOP) radioligand binding (ligand: [3H] Diprenorphine); assay type: cell membranes, HEK293, Membrane; details: hek293; Not Active = under 50% inhibition at 10 µM
[6] = DRUGMATRIX: Calcium Channel Type L, Phenylalkylamine radioligand binding (ligand: [3H] (-)-Desmethoxyverapamil (D-888)); assay type: cell membranes, Rattus norvegicus, Wistar, Brain, Membrane; details: Not Active = under 50% inhibition at 10 µM
[7] = DRUGMATRIX: Interleukin IL-1 radioligand binding (ligand: [125I] interleukin 1beta); assay type: cell membranes, Membrane; details: nih3t3; Not Active = under 50% inhibition at 10 µM
[8] = molecular target: T3, 5-hydroxytryptamine receptor 2C (Homo sapiens, UniProt P28335); assay: DRUGMATRIX: Serotonin (5-Hydroxytryptamine) 5-HT2C radioligand binding (ligand: [3H] Mesulergine); assay type: cell membranes, CHO-K1, Membrane; details: Not Active = under 50% inhibition at 10 µM
T3 sequence (P28335 whole entry): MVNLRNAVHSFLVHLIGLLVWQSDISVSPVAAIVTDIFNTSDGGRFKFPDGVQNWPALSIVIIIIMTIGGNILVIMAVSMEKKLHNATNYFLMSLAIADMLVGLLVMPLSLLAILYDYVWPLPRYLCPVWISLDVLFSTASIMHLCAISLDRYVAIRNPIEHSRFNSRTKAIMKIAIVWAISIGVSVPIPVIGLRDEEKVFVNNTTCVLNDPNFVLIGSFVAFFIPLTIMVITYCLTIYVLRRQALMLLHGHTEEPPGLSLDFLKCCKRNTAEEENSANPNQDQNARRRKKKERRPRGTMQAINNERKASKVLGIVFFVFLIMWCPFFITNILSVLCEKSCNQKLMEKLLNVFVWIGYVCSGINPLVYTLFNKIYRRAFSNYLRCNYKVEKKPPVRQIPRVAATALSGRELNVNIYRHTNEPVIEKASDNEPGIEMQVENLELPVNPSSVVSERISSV

Melanocortin receptor 4 = Melanocortin receptor 4 (Homo sapiens, UniProt P32245); assay type: cell membranes, Membrane; details: hek293; note: in other assays of this panel Not Active means under 50% inhibition at 10 µM
[9] = DRUGMATRIX: Sigma2 radioligand binding (ligand: [3H] Ifenprodil); assay type: cell membranes, Rattus norvegicus, Wistar, Brain, Membrane; details: Not Active = under 50% inhibition at 10 µM
[10] = molecular target: Mitogen-activated protein kinase 3 (Homo sapiens, UniProt P27361); assay: DRUGMATRIX: Protein Serine/Threonine Kinase, ERK1 enzyme inhibition (substrate: Myelin Basic Protein); parameters: species or system Escherichia coli; details: Not Active = under 50% inhibition at 10 µM
Sequence of Mitogen-activated protein kinase 3 (P27361 whole entry): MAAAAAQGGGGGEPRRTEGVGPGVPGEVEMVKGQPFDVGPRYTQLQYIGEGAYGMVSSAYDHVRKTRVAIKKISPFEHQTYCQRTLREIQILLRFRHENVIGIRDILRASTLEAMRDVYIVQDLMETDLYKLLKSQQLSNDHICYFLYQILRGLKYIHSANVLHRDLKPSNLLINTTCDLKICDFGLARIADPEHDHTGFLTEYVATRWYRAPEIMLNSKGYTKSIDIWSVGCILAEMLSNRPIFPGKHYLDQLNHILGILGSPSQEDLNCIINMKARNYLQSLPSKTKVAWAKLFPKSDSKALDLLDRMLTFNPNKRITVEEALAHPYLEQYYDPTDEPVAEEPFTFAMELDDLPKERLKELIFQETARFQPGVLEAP

Sequence of Matrix metalloproteinase-9 (P14780 whole entry): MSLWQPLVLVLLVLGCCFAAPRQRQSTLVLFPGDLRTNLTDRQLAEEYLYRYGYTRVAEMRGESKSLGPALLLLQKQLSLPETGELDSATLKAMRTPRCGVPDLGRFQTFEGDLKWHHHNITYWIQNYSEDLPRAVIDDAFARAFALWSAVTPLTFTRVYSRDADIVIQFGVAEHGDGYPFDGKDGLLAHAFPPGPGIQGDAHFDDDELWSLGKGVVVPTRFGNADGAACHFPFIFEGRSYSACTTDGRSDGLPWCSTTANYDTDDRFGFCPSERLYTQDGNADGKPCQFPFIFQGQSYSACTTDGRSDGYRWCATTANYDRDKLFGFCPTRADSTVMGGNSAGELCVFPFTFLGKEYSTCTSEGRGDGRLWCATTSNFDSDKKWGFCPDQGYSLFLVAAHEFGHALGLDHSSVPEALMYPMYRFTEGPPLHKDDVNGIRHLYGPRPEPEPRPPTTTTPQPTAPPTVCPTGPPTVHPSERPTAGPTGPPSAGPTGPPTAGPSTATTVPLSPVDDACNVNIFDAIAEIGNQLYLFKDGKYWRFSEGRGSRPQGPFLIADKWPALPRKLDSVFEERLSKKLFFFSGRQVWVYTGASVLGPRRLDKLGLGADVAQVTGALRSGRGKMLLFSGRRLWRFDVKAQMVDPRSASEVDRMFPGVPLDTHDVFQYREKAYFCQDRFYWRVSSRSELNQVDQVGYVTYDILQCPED
Sequence of Melanocortin receptor 4 (P32245 whole entry): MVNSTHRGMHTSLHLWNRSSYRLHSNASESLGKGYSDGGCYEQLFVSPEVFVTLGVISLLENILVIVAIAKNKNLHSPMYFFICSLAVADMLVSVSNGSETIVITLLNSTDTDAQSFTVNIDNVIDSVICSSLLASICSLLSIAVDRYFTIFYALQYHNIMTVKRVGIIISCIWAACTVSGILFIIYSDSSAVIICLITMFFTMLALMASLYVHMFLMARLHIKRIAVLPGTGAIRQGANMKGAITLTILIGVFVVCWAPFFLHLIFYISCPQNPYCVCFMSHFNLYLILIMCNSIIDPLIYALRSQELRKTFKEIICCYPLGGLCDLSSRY
Sequence of Vasopressin V1a receptor (P37288 whole entry): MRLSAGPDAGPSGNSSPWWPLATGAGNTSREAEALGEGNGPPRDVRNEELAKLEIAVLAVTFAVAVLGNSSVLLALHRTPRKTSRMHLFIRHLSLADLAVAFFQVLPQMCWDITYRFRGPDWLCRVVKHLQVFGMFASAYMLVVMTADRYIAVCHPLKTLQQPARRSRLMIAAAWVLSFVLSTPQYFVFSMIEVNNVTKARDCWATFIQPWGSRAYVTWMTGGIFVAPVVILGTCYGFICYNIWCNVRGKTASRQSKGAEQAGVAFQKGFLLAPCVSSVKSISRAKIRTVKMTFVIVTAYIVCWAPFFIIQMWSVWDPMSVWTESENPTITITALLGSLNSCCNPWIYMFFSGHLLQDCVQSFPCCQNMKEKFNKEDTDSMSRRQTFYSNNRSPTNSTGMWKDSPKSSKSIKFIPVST
Sequence of Cytochrome P450 3A4 (P08684 whole entry): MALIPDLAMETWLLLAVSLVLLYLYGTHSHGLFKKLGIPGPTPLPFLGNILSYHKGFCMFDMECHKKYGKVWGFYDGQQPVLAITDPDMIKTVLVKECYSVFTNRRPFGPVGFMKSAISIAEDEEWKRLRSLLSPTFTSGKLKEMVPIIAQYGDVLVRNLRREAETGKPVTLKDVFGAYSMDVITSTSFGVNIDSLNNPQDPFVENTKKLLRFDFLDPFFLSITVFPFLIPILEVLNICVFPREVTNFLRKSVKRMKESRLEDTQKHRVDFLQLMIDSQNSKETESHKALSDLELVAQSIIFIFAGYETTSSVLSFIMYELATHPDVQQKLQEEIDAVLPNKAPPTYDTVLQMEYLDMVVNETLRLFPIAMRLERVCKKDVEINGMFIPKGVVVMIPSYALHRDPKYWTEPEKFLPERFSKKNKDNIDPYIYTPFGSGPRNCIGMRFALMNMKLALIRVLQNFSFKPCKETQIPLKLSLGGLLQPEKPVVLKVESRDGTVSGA
Sequence of Kappa-type opioid receptor (P41145 whole entry): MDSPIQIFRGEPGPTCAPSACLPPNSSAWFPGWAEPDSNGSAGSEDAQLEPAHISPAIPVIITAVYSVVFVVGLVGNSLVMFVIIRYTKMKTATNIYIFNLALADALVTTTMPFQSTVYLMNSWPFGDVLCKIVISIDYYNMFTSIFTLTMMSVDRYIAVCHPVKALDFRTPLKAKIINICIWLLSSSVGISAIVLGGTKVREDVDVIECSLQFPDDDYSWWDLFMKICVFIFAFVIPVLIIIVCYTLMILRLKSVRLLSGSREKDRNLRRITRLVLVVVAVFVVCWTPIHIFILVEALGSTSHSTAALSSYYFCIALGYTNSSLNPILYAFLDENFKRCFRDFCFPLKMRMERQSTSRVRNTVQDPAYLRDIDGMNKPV

Row | SMILES | IC50 [1] | IC50 [2] | Ki [2] | IC50 (Cytochrome P450 3A4) | Ki (Cytochrome P450 3A4) | IC50 [3] | IC50 (Vasopressin V1a receptor) | IC50 [4] | IC50 [5] | IC50 [6] | Ki [6] | IC50 [7] | Ki [7] | IC50 ([8]; cho-k1) | IC50 (Melanocortin receptor 4) | IC50 [9] | Ki [9] | IC50 [10] | other results
1 | CCOC(=O)c1ccc(N)cc1 [BENZOCAINE] | Not Active | Not Active | Not Active | Not Active | Not Active | Not Active | Not Active | Not Active | Not Active | Not Active | Not Active | Not Active | Not Active | Not Active | Not Active | Not Active | Not Active | Not Active | 
2 | Cc1ccccc1N1CCN(CCc2nnc3n2CCCC3)CC1 [DAPIPRAZOLE] | Not Active | Not Active | Not Active | Not Active | Not Active | Not Active | Not Active | Not Active | Not Active | Not Active | Not Active | Not Active | Not Active |  | Not Active | Not Active | Not Active | Not Active | IC50 ([8]; read-out: IC50): 625 nM; Ki ([8]; read-out: Ki): 327 nM
3 | CC(=O)OCC(=O)[C@@]1(OC(C)=O)[C@@H](C)C[C@H]2[C@@H]3C[C@H](F)C4=CC(=O)C=C[C@]4(C)[C@@]3(F)[C@@H](O)C[C@@]21C [DIFLORASONE DIACETATE] | Not Active | Not Active | Not Active | Not Active | Not Active | Not Active | Not Active | Not Active | Not Active | Not Active | Not Active | Not Active | Not Active | Not Active | Not Active | Not Active | Not Active | Not Active | 
4 | CCc1ccc(C(=O)C(C)CN2CCCCC2)cc1 (stereo not drawn) [EPERISONE] | Not Active | Not Active | Not Active | Not Active | Not Active | Not Active | Not Active | Not Active | Not Active | Not Active | Not Active | Not Active | Not Active | Not Active | Not Active |  |  | Not Active | IC50 ([9]; read-out: IC50): 1060 nM; Ki ([9]; read-out: Ki): 655 nM
5 | C=C1CC[C@H](O)C/C1=C/C=C1\CCC[C@]2(C)[C@@H]([C@H](C)/C=C/[C@H](C)C(C)C)CC[C@@H]12 [ERGOCALCIFEROL] | Not Active | Not Active | Not Active | Not Active | Not Active | Not Active | Not Active | Not Active | Not Active | Not Active | Not Active | Not Active | Not Active | Not Active | Not Active | Not Active | Not Active | Not Active | 
6 | CC(C)n1c(/C=C/C(O)CC(O)CC(=O)O)c(-c2ccc(F)cc2)c2ccccc21 (stereo not drawn) [FLUVASTATIN] | Not Active | Not Active | Not Active | Not Active | Not Active | Not Active | Not Active | Not Active | Not Active | Not Active | Not Active | Not Active | Not Active | Not Active | Not Active | Not Active | Not Active | Not Active | 
7 | NCC1(CC(=O)O)CCCCC1 [GABAPENTIN] | Not Active | Not Active | Not Active | Not Active | Not Active | Not Active | Not Active | Not Active | Not Active | Not Active | Not Active | Not Active | Not Active | Not Active | Not Active | Not Active | Not Active | Not Active | 
8 | CC[N+](CC)(CC)CCOc1cccc(OCC[N+](CC)(CC)CC)c1OCC[N+](CC)(CC)CC.[I-].[I-].[I-] [GALLAMINE TRIETHIODIDE] | Not Active | Not Active | Not Active | Not Active | Not Active | Not Active | Not Active | Not Active | Not Active | Not Active | Not Active | Not Active | Not Active | Not Active | Not Active | Not Active | Not Active | Not Active | 
9 | COc1c(N2CCNC(C)C2)c(F)cc2c(=O)c(C(=O)O)cn(C3CC3)c12 (stereo not drawn) [GATIFLOXACIN] | Not Active | Not Active | Not Active | Not Active | Not Active | Not Active | Not Active | Not Active | Not Active | Not Active | Not Active | Not Active | Not Active | Not Active | Not Active | Not Active | Not Active | Not Active | 
